Reference: PubChem BioAssay AID1963828 (Molecular Pharmacology Branch, DTP, NCI, 2024)

Test system: 991263-137-R1-J2-PDC complex spheroid viability
Assay: Anticancer human tumor 991263-137-R1-J2-PDC patient-derived colon adenocarcinoma cell line growth inhibition [POLQ]
Details: for IC50: curve of first compound; for viability, T/C: stronger effect = lower value
Experimental: Multicellular complex tumor spheroid response to Polymerase (POL) inhibitors (novobiocin, ART-558, RP6685) in combination with a variety of drugs and investigational agents in selected tumor cell lines
The POL inhibitors (novobiocin, ART-558, and RP6685) were evaluated both individually and in combination with standard of care and investigational anticancer small molecules within a complex spheroid model of solid tumors. . Complex spheroids include a stromal component modeled by human endothelial cells (HUVEC) and fibroblasts modeled by human mesenchymal stem cells (MSCs). The concentration ranges selected for each drug and investigational agent were based upon clinically achievable concentrations if the clinical Cmax of the agent was known.
Compounds. The drugs and investigational agents: novobiocin (NSC847541), ART-558 (NSC835418), RP-6685 (NSC848927), peposertib (NSC802822), ceralasertib (NSC780249), elimusertib (NSC800525), camonsertib (NSC841442), AZD-1390 (NSC803789), olaparib (NSC753686), talazoparib (NSC767125), rucaparib (NSC756644), sotorasib (NSC818433), MRTX-1133 (NSC836407), SN-38 (NSC673596), topotecan (NSC609699), epotoside (NSC141540), doxorubicin (NSC123127), gemcitabine (NSC613327), 5-fluorouracil (NSC19893), paclitaxel (NSC125973), vemurafenib (NSC761431), MSA-2 (NSC828583), SN-011 (NSC837082), adavosertib (NSC754352), prexasertib (NSC758257), carboplatin (NSC241240) and oxaliplatin (NSC266046), were obtained from the National Cancer Institute (NCI) Developmental Therapeutics Program Chemical Repository (21). The FDA-approved anticancer drug set is available from the Developmental Therapeutics Program at https://dtp.cancer.gov/organization/dscb/obtaining/. […] The stock solutions were prepared in dimethyl sulfoxide (DMSO, Sigma-Aldrich, St. Louis, MO, cat. D2650), except for the platinum compounds which were prepared in saline (Quality Biological, Gaithersburg, MD, cat. 114-055-101), at 800-fold the tested concentration and stored at -70 degrees C prior to their use. All drugs and investigational agents were tested over a range starting from a high concentration at or near the clinical Cmax and decreasing in half-log increments. If the clinical Cmax for an agent had not been determined, the highest concentration tested was 10 microM, except for SN-38, which was tested at a high concentration of 1 microM.
Cell Culture. All cells were maintained in an incubator at 37 degrees C and 5% CO2 with 95% humidity. The PDC lines were cultured according to standard operating procedures established by the NCI PDMR (https://pdmr.cancer.gov). Table 3 of the manuscript, lists the cell lines along with the number of the three cell types plated to form the mct-spheroids and media for tumor cell growth. After thawing, all PDC lines, except 997537-175-T-J1-PDC and 415267-285-R-J2-PDC, were cultured in Matrigel-coated flasks prepared with a working solution of 1X Ham's F-12 nutrient mix, without supplementation (Thermo Fisher Scientific, cat. 11765054), 100 U/mL penicillin-streptomycin (Thermo Fisher Scientific, cat. 15140122), and 2.5% Matrigel (Corning Inc., Corning, NY, cat. 354248) for the first three passages. The two PDC lines 997537-175-T-J1-PDC and 415267-285-R-J2-PDC were cultured on uncoated flasks. The 857933-349-R-J2-PDC line was cultured in 6C/Colon 1B media containing advanced DMEM/F-12 (Thermo Fisher Scientific, cat. 12634028), 10 mM HEPES (Thermo Fisher Scientific, cat. 15630080), 1X GlutaMAX supplement (Thermo Fisher Scientific, cat. 35050061), 0.1 mg/mL primocin (InvivoGen, San Diego, CA, cat. ant-pm-2), 10% defined fetal bovine serum, heat inactivated (HyClone Laboratories Inc., Logan, UT, cat. SH30070.03HI), 50% L-WRN conditioned media (ATCC, cat. CRL-3276), 1.25 mM N-Acetyl-L-cysteine (Sigma-Aldrich, cat. A9165), 10 mM nicotinamide (Sigma-Aldrich, cat. N0636), 1X B-27 supplement (Thermo Fisher Scientific, cat. 17504044), 1X N-2 supplement (Thermo Fisher Scientific, cat. […]

[1] = second compound 0.0316 µM, first compound 0.0316 µM
[2] = second compound 0.0316 µM, first compound 0.1 µM
[3] = second compound 0.0316 µM, first compound 0.316 µM
[4] = second compound 0.0316 µM, first compound 1 µM
[5] = second compound 0.0316 µM, first compound 3.16 µM
[6] = second compound 0.0316 µM, first compound 10 µM
[7] = second compound 0.1 µM, first compound 0.0316 µM
[8] = second compound 0.1 µM, first compound 0.1 µM
[9] = second compound 0.1 µM, first compound 0.316 µM
[10] = second compound 0.1 µM, first compound 1 µM
[11] = second compound 0.1 µM, first compound 3.16 µM
[12] = second compound 0.1 µM, first compound 10 µM
[13] = second compound 0.316 µM, first compound 0.0316 µM
[14] = second compound 0.316 µM, first compound 0.1 µM
[15] = second compound 0.316 µM, first compound 0.316 µM
[16] = second compound 0.316 µM, first compound 1 µM
[17] = second compound 0.316 µM, first compound 3.16 µM
[18] = second compound 0.316 µM, first compound 10 µM
[19] = second compound 1 µM, first compound 0.0316 µM
[20] = second compound 1 µM, first compound 0.1 µM
[21] = second compound 1 µM, first compound 0.316 µM
[22] = second compound 1 µM, first compound 1 µM
[23] = second compound 1 µM, first compound 3.16 µM
[24] = second compound 1 µM, first compound 10 µM
[25] = second compound 3.16 µM, first compound 0.0316 µM
[26] = second compound 3.16 µM, first compound 0.1 µM
[27] = second compound 3.16 µM, first compound 0.316 µM
[28] = second compound 3.16 µM, first compound 1 µM
[29] = second compound 3.16 µM, first compound 3.16 µM
[30] = second compound 3.16 µM, first compound 10 µM
[31] = second compound 10 µM, first compound 0.0316 µM
[32] = second compound 10 µM, first compound 0.1 µM
[33] = second compound 10 µM, first compound 0.316 µM
[34] = second compound 10 µM, first compound 1 µM
[35] = second compound 10 µM, first compound 3.16 µM
[36] = second compound 10 µM, first compound 10 µM
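Further: spheroids exposed to compounds for 7 days before readout.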
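Wherever viability, T/C is given: 100% = DMSO vehicle control viability.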

CC(C)n1c(=O)n(C)c2cnc3cc(F)c(-c4ccc(OCCCN5CCCCC5)nc4)cc3c21 + Cc1cccc(N(C)C(=O)C2C(O)CCN2c2nc(C)cc(C(F)(F)F)c2C#N)c1
IC50 (second compound 0.0316 µM): > 10 µM
IC50 (second compound 0.1 µM): > 10 µM
IC50 (second compound 0.316 µM): > 10 µM
IC50 (second compound 1 µM): > 10 µM
IC50 (second compound 3.16 µM): > 10 µM
IC50 (second compound 10 µM): > 10 µM
viability, T/C [1]: 98.9%
viability, T/C [2]: 97.1%
viability, T/C [3]: 99.3%
viability, T/C [4]: 90.9%
viability, T/C [5]: 98.3%
viability, T/C [6]: 83.9%
viability, T/C [7]: 96.6%
viability, T/C [8]: 99.9%
viability, T/C [9]: 115%
viability, T/C [10]: 90.7%
viability, T/C [11]: 74%
viability, T/C [12]: 79%
viability, T/C [13]: 83.8%
viability, T/C [14]: 101%
viability, T/C [15]: 102%
viability, T/C [16]: 106%
viability, T/C [17]: 109%
viability, T/C [18]: 80.4%
viability, T/C [19]: 92.1%
viability, T/C [20]: 99.5%
viability, T/C [21]: 116%
viability, T/C [22]: 90.8%
viability, T/C [23]: 99.1%
viability, T/C [24]: 81.2%
viability, T/C [25]: 85.9%
viability, T/C [26]: 98.3%
viability, T/C [27]: 90.2%
viability, T/C [28]: 101%
viability, T/C [29]: 109%
viability, T/C [30]: 61.3%
viability, T/C [31]: 82%
viability, T/C [32]: 104%
viability, T/C [33]: 86.7%
viability, T/C [34]: 80.1%
viability, T/C [35]: 111%
viability, T/C [36]: 67.2%

O=C(Nc1ccc(O)c(NS(=O)(=O)c2ccc(F)cc2)c1)c1ccc(-c2ccccc2)cc1 + Cc1cccc(N(C)C(=O)C2C(O)CCN2c2nc(C)cc(C(F)(F)F)c2C#N)c1
IC50 (second compound 0.0316 µM): > 10 µM
IC50 (second compound 0.1 µM): > 10 µM
IC50 (second compound 0.316 µM): > 10 µM
IC50 (second compound 1 µM): > 10 µM
IC50 (second compound 3.16 µM): > 10 µM
IC50 (second compound 10 µM): > 10 µM
viability, T/C [1]: 103%
viability, T/C [2]: 99.6%
viability, T/C [3]: 90.9%
viability, T/C [4]: 101%
viability, T/C [5]: 87.2%
viability, T/C [6]: 92%
viability, T/C [7]: 96.8%
viability, T/C [8]: 95.7%
viability, T/C [9]: 113%
viability, T/C [10]: 94.8%
viability, T/C [11]: 99%
viability, T/C [12]: 91%
viability, T/C [13]: 98.3%
viability, T/C [14]: 97.5%
viability, T/C [15]: 103%
viability, T/C [16]: 80.9%
viability, T/C [17]: 99.6%
viability, T/C [18]: 86.5%
viability, T/C [19]: 99.2%
viability, T/C [20]: 99%
viability, T/C [21]: 106%
viability, T/C [22]: 94.2%
viability, T/C [23]: 103%
viability, T/C [24]: 80.1%
viability, T/C [25]: 96.4%
viability, T/C [26]: 96.2%
viability, T/C [27]: 95.2%
viability, T/C [28]: 109%
viability, T/C [29]: 105%
viability, T/C [30]: 85.8%
viability, T/C [31]: 93.7%
viability, T/C [32]: 95.9%
viability, T/C [33]: 90.5%
viability, T/C [34]: 96.8%
viability, T/C [35]: 105%
viability, T/C [36]: 87.5%

COc1cccc2c1C(=O)c1c(O)c3c(c(O)c1C2=O)CC(O)(C(=O)CO)CC3OC1CC(N)C(O)C(C)O1 (stereo unspecified) + Nc1ccc(C#CCN(C(=O)Cc2ncc(C(F)(F)F)cc2C(F)(F)F)c2ccc(F)cc2)nn1
IC50 (second compound 0.0316 µM): 1.27 µM
IC50 (second compound 0.1 µM): 1.48 µM
IC50 (second compound 0.316 µM): 1.25 µM
IC50 (second compound 1 µM): 1.04 µM
IC50 (second compound 3.16 µM): 0.822 µM
IC50 (second compound 10 µM): 0.614 µM
viability, T/C [1]: 102%
viability, T/C [2]: 92.4%
viability, T/C [3]: 92.8%
viability, T/C [4]: 51.7%
viability, T/C [5]: 43.4%
viability, T/C [6]: 42.6%
viability, T/C [7]: 103%
viability, T/C [8]: 97.8%
viability, T/C [9]: 91.5%
viability, T/C [10]: 53.2%
viability, T/C [11]: 45.1%
viability, T/C [12]: 40.2%
viability, T/C [13]: 94.7%
viability, T/C [14]: 98%
viability, T/C [15]: 91.9%
viability, T/C [16]: 53%
viability, T/C [17]: 38%
viability, T/C [18]: 35.1%
viability, T/C [19]: 88.6%
viability, T/C [20]: 109%
viability, T/C [21]: 81.8%
viability, T/C [22]: 52%
viability, T/C [23]: 37.4%
viability, T/C [24]: 37.4%
viability, T/C [25]: 90.6%
viability, T/C [26]: 94.3%
viability, T/C [27]: 76.9%
viability, T/C [28]: 43.8%
viability, T/C [29]: 38.4%
viability, T/C [30]: 28.8%
viability, T/C [31]: 91.6%
viability, T/C [32]: 88.4%
viability, T/C [33]: 61.2%
viability, T/C [34]: 39.3%
viability, T/C [35]: 28.8%
viability, T/C [36]: 16.4%
